In patent US12421230B2, “Tricyclic heteroaryl compounds useful as IRAK4 inhibitors” (BRISTOL-MYERS SQUIBB COMPANY, priority 2020, dated 2025) one finds IC50 and EC50 data, which are given here for 24 compounds.

Assay [1] addresses T1, IRAK4 (Homo sapiens, UniProt Q9NWZ3).
T1 sequence (Q9NWZ3 1-460): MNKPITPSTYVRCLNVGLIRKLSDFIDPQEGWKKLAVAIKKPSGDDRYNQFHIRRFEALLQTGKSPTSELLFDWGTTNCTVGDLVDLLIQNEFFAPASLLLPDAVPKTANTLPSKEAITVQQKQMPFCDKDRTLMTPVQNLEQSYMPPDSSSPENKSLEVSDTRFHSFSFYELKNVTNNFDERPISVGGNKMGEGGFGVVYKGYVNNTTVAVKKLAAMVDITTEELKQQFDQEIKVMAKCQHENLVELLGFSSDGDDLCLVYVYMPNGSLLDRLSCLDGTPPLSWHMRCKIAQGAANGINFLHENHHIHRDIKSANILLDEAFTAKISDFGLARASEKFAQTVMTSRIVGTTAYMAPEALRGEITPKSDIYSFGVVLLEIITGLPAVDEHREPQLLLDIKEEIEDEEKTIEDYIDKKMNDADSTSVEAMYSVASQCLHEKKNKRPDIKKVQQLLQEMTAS
In words: IRAK4 Inhibition Assay. The format is biochemical. The note with it: ATP 500 μM; fluoresceinated peptide 1.5 μM; IRAK4 0.6 nM; 60 min room temperature; Caliper LABCHIP. The procedure:
The assays were performed in U-bottom 384-well plates. The final assay volume was 30 μL prepared from 15 μL additions of enzyme and substrates (fluoresceinated peptide and ATP) and test compounds in assay buffer (20 mM HEPES pH 7.2, 10 mM MgCl2, 0.015% Brij 35 and 4 mM DTT). The reaction was initiated by the combination of IRAK4 with substrates and test compounds. The reaction mixture was incubated at room temperature for 60 min. and terminated by adding 45 μL of 35 mM EDTA to each sample. The reaction mixture was analyzed on the Caliper LABCHIP® 3000 (Caliper, Hopkinton, MA) by electrophoretic separation of the fluorescent substrate and phosphorylated product. Inhibition data were calculated by comparison to no enzyme control reactions for 100% inhibition and vehicle-only reactions for 0% inhibition. The final concentrations of reagents in the assays are ATP, 500 μM; FL-IPTSPITTTYFFFKKK peptide 1.5 μM; IRAK4, 0.6 nM; and DMSO, 1.6%.

The test system of assay [2] is Human whole blood. Briefly: IRAK4 Whole Blood Assay. The format is cell-based. As to conditions: stimulated with TLR2 agonist lipoteichoic acid 10 μg/mL for 5 hours, IL-6 levels. The method, then:
Human whole blood containing the anti-coagulant ACD-A was plated in 384-well plate (25 μL/well) and incubated with compounds for 60 minutes at 37° C. in a 5% CO2 incubator. The blood was stimulated with a TLR2 agonist, 10 μg/mL final concentration of lipoteichoic acid (Invivogen, San Diego, CA) in 25 μL RPMI (Gibco) for 5 hours in a 5% CO2 incubator. At the end of the incubation, plates were centrifuged at 2300 rpm for 5 minutes. Supernatants were harvested and analyzed for IL-6 levels by Flow Cytometry beads assay (BD Biosciences, San Jose, CA).

For `CC(C)Nc1c(C(=O)NC2CCN(S(C)(=O)=O)CC2)cnc2c1[nH]c1cc(C#N)ccc12` [Example 63, 7-cyano-4-(isopropylamino)-N-(1-(methylsulfonyl)piperidin-4-yl)-5H-pyrido[3,2-b]indole-3-carboxamide], in assay [1], the half-maximal inhibitory concentration (IC50) amounted to 0.0071 µM. This compound yielded a concentration for a half-maximal effect (EC50) in assay [2] greater than 20 µM.
For the compound `CC(C)Nc1c(C(=O)NCc2cocn2)cnc2c1[nH]c1cc(C#N)ccc12` [Example 14, 7-cyano-4-(isopropylamino)-N-(oxazol-4-ylmethyl)-5H-pyrido[3,2-b]indole-3-carboxamide], the IC50 in assay [1] turned out to be 0.019 µM. Also, in assay [2], the concentration for a half-maximal effect (EC50) worked out at 3.5 µM.
For `CC(C)Nc1c(C(=O)NCCC(F)(F)F)cnc2c1[nH]c1cc(C#N)ccc12` [Example 27, 7-cyano-4-(isopropylamino)-N-(3,3,3-trifluoropropyl)-5H-pyrido[3,2-b]indole-3-carboxamide] the same measures were 0.013 µM and greater than 10 µM.
For `CC(C)Nc1c(-c2cc(C3CCCCN3)no2)cnc2c1[nH]c1cc(C#N)ccc12` (stereo not drawn) [Example 80, 4-(isopropylamino)-3-(3-(piperidin-2-yl)isoxazol-5-yl)-5H-pyrido[3,2-b]indole-7-carbonitrile] the same measures were 0.018 µM and 3.31 µM.
With `CC(C)Nc1c(C(=O)NC[C@@H](F)C(C)(C)O)cnc2c1[nH]c1cc(-c3cncs3)ccc12` [Example 66, (R)—N-(2-fluoro-3-hydroxy-3-methylbutyl)-4-(isopropylamino)-7-(thiazol-5-yl)-5H-pyrido[3,2-b]indole-3-carboxamide], the IC50 in assay [1] came to 0.0086 µM. This compound returned a half-maximal effective concentration (EC50) in assay [2] of 1.24 µM.
In the case of `CC(C)Nc1c(C(=O)NCCN2CCS(=O)(=O)CC2)cnc2c1[nH]c1cc(C#N)ccc12` [Example 62, 7-cyano-N-(2-(1,1-dioxidothiomorpholino)ethyl)-4-(isopropylamino)-5H-pyrido[3,2-b]indole-3-carboxamide], the IC50 in assay [1] was determined as 0.0033 µM. The EC50 in assay [2] was 12.3 µM.
With `CC(C)Nc1c(C(=O)NCCC2CC2)cnc2c1[nH]c1cc(C#N)ccc12` [Example 34, 7-cyano-N-(2-cyclopropylethyl)-4-(isopropylamino)-5H-pyrido[3,2-b]indole-3-carboxamide], the half-maximal inhibitory concentration (IC50) in assay [1] was 0.0034 µM. This compound returned a concentration giving a half-maximal response (EC50) in assay [2] of 0.58 µM.
As to `CC(C)Nc1c(C(=O)NCCC2(O)CC(F)(F)C2)cnc2c1[nH]c1cc(C#N)ccc12` [Example 43, 7-cyano-N-(2-(3,3-difluoro-1-hydroxycyclobutyl)ethyl)-4-(isopropylamino)-5H-pyrido[3,2-b]indole-3-carboxamide], the IC50 in assay [1] came to 0.0025 µM. In assay [2], this compound had an EC50 of 0.74 µM.
For `CC(C)(O)CCNC(=O)c1cnc2c([nH]c3cc(C#N)ccc32)c1NC(C)(C)C` [Example 40, 4-(tert-butylamino)-7-cyano-N-(3-hydroxy-3-methylbutyl)-5H-pyrido[3,2-b]indole-3-carboxamide], the 50% inhibitory concentration (IC50) in assay [1] came to 0.0063 µM. Besides, the EC50 in assay [2] came out at 1.6 µM.
On to `CC(=O)NC(C)(C)CCNC(=O)c1cnc2c([nH]c3cc(C#N)ccc32)c1NC(C)C` [Example 60, N-(3-acetamido-3-methylbutyl)-7-cyano-4-(isopropylamino)-5H-pyrido[3,2-b]indole-3-carboxamide], for which the IC50 in assay [1] came out at 0.0038 µM. Further, in assay [2], the EC50 is greater than 20 µM.
The like results for `CC(C)CCNC(=O)c1cnc2c([nH]c3cc(C#N)ccc32)c1NC(C)C` [Example 21, 7-cyano-N-isopentyl-4-(isopropylamino)-5H-pyrido[3,2-b] indole carboxamide] were, in that order, 0.0021 µM and 1.34 µM.
Turning to `CC(C)Nc1c(C(=O)N[C@H]2CC[C@H](O)CC2)cnc2c1[nH]c1cc(C#N)ccc12` [Example 10, 7-cyano-N-((1R,4R)-4-hydroxycyclohexyl)-4-(isopropylamino)-5H-pyrido[3,2-b]indole-3-carboxamide], the IC50 in assay [1] came to 0.012 µM. Moreover, in assay [2], a half-maximal effect (EC50) was put at 2.89 µM.
For the compound `CC(C)(O)CCNC(=O)c1cnc2c([nH]c3cc(C#N)ccc32)c1NC1CC1` [Example 46, 7-cyano-4-(cyclopropylamino)-N-(3-hydroxy-3-methylbutyl)-5H-pyrido[3,2-b]indole-3-carboxamide], the concentration for half-maximal inhibition (IC50) in assay [1] was found to be 0.0026 µM. Moreover, the 50% effective concentration (EC50) in assay [2] is 0.74 µM.
As for `CC(C)Nc1c(C(=O)N[C@H]2C[C@H](C(C)(C)O)C2)cnc2c1[nH]c1cc(C#N)ccc12` [Example 39, 7-cyano-N-((1R,3R)-3-(2-hydroxypropan-2-yl)cyclobutyl)-4-(isopropylamino)-5H-pyrido[3,2-b] indole-3-carboxamide], the IC50 in assay [1] stood at 0.0039 µM. In assay [2], this compound came in with an EC50 greater than 20 µM.
For `CC(C)(O)CCNC(=O)c1cnc2c([nH]c3cc(C#N)ccc32)c1NCC(F)F` [Example 36, 7-cyano-4-((2,2-difluoroethyl)amino)-N-(3-hydroxy-3-methylbutyl)-5H-pyrido[3,2-b]indole-3-carboxamide] the same measures were 0.0091 µM and 3.32 µM.
The like results for `CCNc1c(C(=O)NCCC2CCCN2)cnc2c1[nH]c1cc(C#N)ccc12` (stereo not drawn) [Example 57, 7-cyano-4-(ethylamino)-N-(2-(pyrrolidin-2-yl)ethyl)-5H-pyrido[3,2-b]indole-3-carboxamide] were, in that order, 0.018 µM and 0.61 µM.
As to `CC(C)Nc1c(C(=O)NCC2CCS(=O)(=O)C2)cnc2c1[nH]c1cc(C#N)ccc12` (stereo not drawn) [Example 61, 7-cyano-N-((1,1-dioxidotetrahydrothiophen-3-yl)methyl)-4-(isopropylamino)-5H-pyrido[3,2-b]indole-3-carboxamide], the concentration for half-maximal inhibition (IC50) in assay [1] stood at 0.0072 µM. In assay [2], this compound showed a concentration giving a half-maximal response (EC50) greater than 20 µM.
For `CC(C)Nc1c(C(=O)NCCC(F)F)cnc2c1[nH]c1cc(C#N)ccc12` [Example 31, 7-cyano-N-(3,3-difluoropropyl)-4-(isopropylamino)-5H-pyrido[3,2-b]indole-3-carboxamide] the same measures were 0.0095 µM and greater than 20 µM.
As for `COCCNC(=O)c1cnc2c([nH]c3cc(C#N)ccc32)c1NC(C)C` [Example 17, 7-cyano-4-(isopropylamino)-N-(2-methoxyethyl)-5H-pyrido[3,2-b]indole-3-carboxamide], in assay [1], the half-inhibitory concentration (IC50) was found to be 0.013 µM. Moreover, the response in assay [2] was half-maximal at 4.73 µM (EC50).
For `CC(C)Nc1c(-c2cc(C3CCOCC3)no2)cnc2c1[nH]c1cc(C#N)ccc12` [Example 77, 4-(isopropylamino)-3-(3-(tetrahydro-2H-pyran-4-yl)isoxazol-5-yl)-5H-pyrido[3,2-b]indole-7-carbonitrile] the same measures were 0.011 µM and 0.99 µM.
`CC(C)Nc1c(C(=O)NCC(F)(F)CN)cnc2c1[nH]c1cc(C#N)ccc12` [Example 51, N-(3-amino-2,2-difluoropropyl)-7-cyano-4-(isopropylamino)-5H-pyrido[3,2-b]indole-3-carboxamide]: the IC50 in assay [1] is 0.016 µM. This compound also showed an EC50 in assay [2] of 1.55 µM.
For `CC(C)Nc1c(C(=O)NCCC(C)(C)F)cnc2c1[nH]c1cc(C#N)ccc12` [Example 38, 7-cyano-N-(3-fluoro-3-methylbutyl)-4-(isopropylamino)-5H-pyrido[3,2-b]indole-3-carboxamide], in assay [1], the concentration for half-maximal inhibition (IC50) is 0.0031 µM. The same compound showed an EC50 in assay [2] of 0.51 µM.
As to `CC(C)Nc1c(C(=O)N[C@H]2CC[C@H](N)CC2)cnc2c1[nH]c1cc(C#N)ccc12` [Example 12, N-((1R,4R)-4-aminocyclohexyl)-7-cyano-4-(isopropylamino)-5H-pyrido[3,2-b]indole-3-carboxamide], the 50% inhibitory concentration (IC50) in assay [1] was found to be 0.0086 µM. For the same compound, in assay [2], the concentration for a half-maximal effect (EC50) was determined as 2.72 µM.
As for `CC(C)Nc1c(C(=O)NC[C@@H](F)C(C)(C)O)cnc2c1[nH]c1cc(C#N)ccc12` [Example 1, (R)-7-cyano-N-(2-fluoro-3-hydroxy-3-methylbutyl)-4-(isopropylamino)-5H-pyrido [3,2-b]indole-3-carboxamide], the IC50 in assay [1] was found to be 0.002 µM. This compound also returned an EC50 in assay [2] of 0.43 µM.
